Results from US12441734B2, “Ferroptosis inhibitor and use therefor” (JICHI MEDICAL UNIVERSITY, priority 2021, dated 2025).

Assays:
[1] = system: Leigh syndrome patient cells (KCMC10); test: Test III: suppression of BSO-induced ferroptosis, Leigh syndrome patient cells; format: cell-based, human; conditions: for cell death ascribable to ferroptosis induced by BSO: 100 μM BSO coadded with test compound, FIG. 32; for EC50: Homo sapiens, read-out: EC50 (50% effective concentration of the suppressive effect on cell death ascribable to ferroptosis induced by BSO); for EC50 / ferroptosis inhibitory effect (judged from EC50 value): Leigh syndrome patient cells (KCMC10), BSO; for ferroptosis inhibitory effect (judged from EC50 value): Table 3
Text: (§1) Apomorphine and idebenone approved as a therapeutic drug for Leber's hereditary optic neuropathy in the Europe were used as control drugs.
(§2) In the drawing, A depicts the results obtained using compounds D8, D9, D10, D18, D20, D26, and D36, and B depicts the results obtained using compounds D37, D38, D39, D40, D41, D42, and D43. In the drawing, the abscissa depicts test compounds, and the ordinate depicts the cell viability (%) of each treated plot when the number of live cells in a control non-supplemented with BSO is defined as 100%.

[2] = system: MELAS patient cells (ME169); test: Test III: suppression of BSO-induced ferroptosis, MELAS patient cells; format: cell-based, human; conditions: 80 μM BSO coadded with test compound; FIG. 33
Text: as §1, §2

[3] = system: Leigh syndrome patient cells (KCMC10); test: Test III: suppression of RSL-3-induced ferroptosis, Leigh syndrome patient cells; format: cell-based, human; conditions: 100 nM RSL-3 coadded with test compound; FIG. 34
Text: as §1
as §2, with “RSL-3” for “BSO”

[4] = system: MELAS patient cells (ME169); test: Test III: suppression of RSL-3-induced ferroptosis, MELAS patient cells; format: cell-based, human; conditions: 100 nM RSL-3 coadded with test compound; FIG. 35
Text: as §1
as §2, with “RSL-3” for “BSO”

dopamine D2 receptor = dopamine D2 receptor (Homo sapiens (Human), UniProt P14416); test: Test IV: dopamine D2 receptor binding activity (GeneBLAzer D2-Gqo5-NEAT-bla CHO-K1 Cell-based Assay); conditions: for Dopamine D2 receptor binding activity, Activity intensity: CHO-K1 reporter cells, 5 hours
Chain of dopamine D2 receptor (P14416 whole entry): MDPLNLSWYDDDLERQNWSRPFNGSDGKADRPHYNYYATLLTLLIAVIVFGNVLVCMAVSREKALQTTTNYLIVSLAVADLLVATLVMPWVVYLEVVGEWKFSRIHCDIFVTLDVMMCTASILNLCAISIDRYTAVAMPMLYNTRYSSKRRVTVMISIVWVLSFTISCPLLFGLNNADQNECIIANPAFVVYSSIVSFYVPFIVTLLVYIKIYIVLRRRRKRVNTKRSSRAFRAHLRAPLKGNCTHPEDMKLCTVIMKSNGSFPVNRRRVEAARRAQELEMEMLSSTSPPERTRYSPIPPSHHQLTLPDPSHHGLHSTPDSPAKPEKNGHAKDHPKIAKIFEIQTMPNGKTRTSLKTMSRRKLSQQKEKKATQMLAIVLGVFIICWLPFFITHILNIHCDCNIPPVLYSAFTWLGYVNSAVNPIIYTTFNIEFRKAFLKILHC
Procedure: In this test, the dopamine D2 receptor binding activity of each test compound was measured using GeneBLAzer D2-Gqo5-NEAT-bla CHO-K1 Cell-based Assay (Thermo Fisher Scientific, Inc.). The CHO cells are designed such that a signal transduction pathway is activated by addition of a drug to express a reporter gene (P lactamase). […] Therefore, the binding activity of the test compound can be measured by measuring a blue fluorescence/green fluorescence ratio. The CHO cells were inoculated at 10,000 cells/well to a 384-well plate and cultured for 16 to 20 hours in a CO2 incubator. […] A substrate mix was added to the cells and incubated at room temperature for 2 hours. […] The respective EC50 values of the test compounds were determined from the measured fluorescence ratios using GraphPad Prism 8.

[5] = system: human liver cancer cell line (Huh7); test: Test V: suppression of RSL-3-induced cell death in liver cancer cell system (LDH, MTT); format: cell-based; parameters: key to LDH (LDH activity, cell death): relative to control without RSL-3 (= 1); conditions: Huh7, test compound 1 μM (GSK872 5 μM) 1 hour, then RSL-3 0.5 μM 24 hours, relative value, control non-supplemented with RSL-3 = 1; for viability at 1 µM: Homo sapiens, Huh-7, read-out: MTT (cell proliferation and cell viability)
Procedure: The ferroptosis inducer used was RSL-3.
At the stage where 70% confluency was attained, the medium was replaced with the medium for the test, and DMSO or each test compound (final concentration of GSK872: 5 μM, and final concentration of the other compounds: 1 μM) was added to the cells in each well, which were then cultured for 1 hour. Then, the ferroptosis inducer (final concentration: 0.5 μM) was added to the cells in each well, which were then cultured for 24 hours. After the completion of culture, cell death suppressive activity was measured with lactate dehydrogenase (LDH) activity as an index while cell proliferation and cell viability were measured with activity of reducing yellow tetrazolium salt (MTT) into formazan as an index.
The values in the table are relative values when the LDH activity and MTT value of a control non-supplemented with RSL-3 are each defined as 1.

SH-SY5Y cells = test: Test VI: inhibition of rotenone-induced neuronal death (LDH assay); format: cell-based, human; parameters: key: ++: the case where a concentration-dependent inhibitory effect on rotenone-induced cell death was able to be confirmed twice; +: In the third test, the case where the concentration-dependent inhibitory effect was able to be confirmed; ±: the case where no concentration-dependent inhibitory effect was able to be confirmed; −: The case where any inhibitory effect on rotenone-induced cell death was able to be confirmed in none of the two tests; conditions: rotenone 1 μM, compound 10 nM-10 μM (Apo 0.1 nM-10 μM), 48 hours
Procedure: After the completion of culture, rotenone-induced cell death was measured using Cytotoxicity LDH Assay Kit-WST (Dojindo Laboratories). […] The test was conducted twice, and the case where a concentration-dependent inhibitory effect on rotenone-induced cell death was able to be confirmed twice was rated as (++). If the inhibitory effect was confirmed in one of the two tests and no inhibitory effect was confirmed in the other test, the third test was conducted. In the third test, the case where the concentration-dependent inhibitory effect was able to be confirmed was rated as (+), and the case where no concentration-dependent inhibitory effect was able to be confirmed was rated as (±). The case where any inhibitory effect on rotenone-induced cell death was able to be confirmed in none of the two tests was rated as (−).

Compound | cell death ascribable to ferroptosis induced by BSO [1] | EC50 [1] [nM] | cell death ascribable to ferroptosis induced by BSO [2] | cell death ascribable to ferroptosis induced by RSL-3 [3] | cell death ascribable to ferroptosis induced by RSL-3 [4] | dopamine D2 receptor binding activity (in words) (dopamine D2 receptor) | Dopamine D2 receptor binding activity, Activity intensity (dopamine D2 receptor) | ferroptosis inhibitory effect (judged from EC50 value) [1] | viability at 1 µM [5] [%] | LDH (LDH activity, cell death) [5] | Inhibitory effect on rotenone-induced cell death (SH-SY5Y cells)
COc1cccc2c1C[C@@H]1c3c(cc4c(c3-2)OCO4)CCN1C [D9] | markedly suppressed | 393 | markedly suppressed | suppressed | suppressed | no or little | − |  |  |  | 
COc1cc(O)c2c(c1)C[C@@H]1c3c(cc4c(c3-2)OCO4)CCN1C [D10] | markedly suppressed | 750 | markedly suppressed | suppressed | suppressed | no or little | − |  |  |  | 
CN1CCc2cc3c(c4c2[C@H]1Cc1ccccc1-4)OCO3 [D18] | markedly suppressed | 492 | markedly suppressed | suppressed | suppressed | no or little | − |  |  |  | 
COc1cc2c(cc1OC)-c1c3c(c(OC)c4c1C(C2)N(C)CC4)OCO3 (stereo not shown) [D20] | markedly suppressed | 798 | markedly suppressed | suppressed | suppressed | no or little | − |  |  |  | 
CN1CCc2cccc3c2[C@H]1Cc1ccc(OCCCc2ccccc2)c(O)c1-3.Cl [D37] |  | 186 |  |  |  | no or little | − | particularly high | 80 | 0.85 | ++
CN1CCc2cccc3c2[C@H]1Cc1ccc(OCCCO)c(O)c1-3.Cl [D38] |  |  |  |  |  | no or little | ± | particularly high | 81 | 1.66 | ++
CN1CCc2cccc3c2[C@H]1Cc1ccc(OCCCCl)c(O)c1-3.Cl [D39] |  | 259 |  |  |  | no or little | − |  | 80 | 1.15 | +
CCCOc1ccc2c(c1O)-c1cccc3c1[C@@H](C2)N(C)CC3.Cl [D40] |  | 55 |  |  |  | no or little | − | particularly high | 84 | 1.15 | +
CCCCCCCCCOc1ccc2c(c1O)-c1cccc3c1[C@@H](C2)N(C)CC3.Cl [D41] |  | 648 |  |  |  | no or little | − |  |  |  | 
CN1CCc2cccc3c2[C@H]1Cc1ccc(OCCCC(F)(F)F)c(O)c1-3.Cl [D42] |  | 167 |  |  |  | no or little | − | particularly high | 82 | 1.55 | +
COc1ccc2c(c1O)-c1c(OC)c(OC)cc3c1[C@@H](C2)N(C)CC3 [D43] |  | 223 |  |  |  | no or little | − |  | 49 | 6.52 | −
CN1CCc2cccc3c2[C@H]1Cc1ccc(-c2ccccc2)c(O)c1-3 [D45] |  | 96 |  |  |  | no or little | ± | particularly high | 77 | 0.43 | ++
CN1CCc2cccc3c2[C@H]1Cc1ccc(OCc2ccccc2)c(O)c1-3 [D47] |  | 124 |  |  |  | no or little | − | particularly high | 71 | 0.39 | ++
CN1CCc2cccc3c2[C@H]1Cc1ccc(OCCc2ccccc2)c(O)c1-3 [D48] |  | 128 |  |  |  | no or little | − | particularly high | 78 | 0.44 | ++
CN1CCc2cccc3c2[C@H]1Cc1ccc(OCCCCc2ccccc2)c(O)c1-3 [D50] |  | 207 |  |  |  | no or little | − |  | 60 | 0.43 | ++
CN1CCc2cccc3c2[C@H]1Cc1ccc(OCCC(c2ccccc2)c2ccccc2)c(O)c1-3 [D54] |  |  |  |  |  | no or little | − |  | 68 | 0.43 | −
CCOc1ccc2c(c1O)-c1cccc3c1[C@@H](C2)N(C)CC3 [D55] |  | 4 |  |  |  | no or little | − | particularly high | 78 | 0.44 | +
